This is an account of results in US20130324707A1, “SYNTHETIC AMPHIPHILES FOR MEMBRANE PROTEIN MANIPULATION” (The Board of Trustees of the Leland Stanford Junior …, priority 2009, published 2013).

Marks after values point to notes of the source that are not given here.

Data set [1] has as its system human β2 adrenergic receptor-T4-lyosome fusion protein (β2AR-T4L). In words: Thermal stabilization (Tm) of β2AR-T4L in amphiphile, normalized peak ratio 341 nm/356 nm. The arrangement: Tm: unit: °C. The following applies: for Tm: β2AR-T4L. The text has this: FIG. 3 illustrates the results of comparing MNGs to MPAs at 10×CMC for stabilization efficacy of β2 adrenergic receptor-T4-lyosome fusion protein (β2AR-T4L), according to an embodiment of the invention.
FIG. 4 illustrates the results of comparing MNGs to MPAs at 50×CMC for stabilization efficacy of β2AR-T4L, according to an embodiment of the invention. Similar to FIG. 3, the horizontal dotted line extending from 50% on the y-axis in FIG. 4 indicates the melting temperature (Tm).
The branched amphiphiles of the invention have shown to have several advantageous properties that match or surpass those of many known amphiphiles. The branched nature provide improved stabilization, attributable to the dual saccharide chains, and improved solubilization, attributable to the dual hydrophobic tail groups. FIGS. 3 and 4 show a comparative study showing normalized peak ratios (341 nm/356 nm) for six different amphiphiles (illustrated in Schemes F and G) from 25° C. to 85° C., at 10×CMC and 50×CMC for human β2 adrenergic receptor-T4-lyosome fusion protein (β2AR-T4L).

The nature of data set [2]: Critical micelle concentration (CMC) by fluorescent dye uptake. Type of data set: physicochemical. The text has this:
The Critical Micelle Concentrations (CMCs) of compounds of the invention can be determined by standard techniques known to those of skill in the art. For example, CMCs of the carbohydrate-based amphiphiles described herein can be determined by monitoring uptake of a fluorescent dye (e.g., a dye such as 1,6-diphenylhexatriene) with increasing detergent concentration, monitored by fluorescence spectroscopy.

Data set [3] concerns M3 muscarinic receptor. The data set can be described thus: [3H]N-methylscopolamine binding to purified M3 muscarinic receptor in amphiphiles/detergents. Conditions: upon addition of the amphiphile; HEPES pH 7.5, 100 mM NaCl. As for the experimental part:
For FIG. 5, the samples (DDM, MNG-28, and MNG-14) were combined with HEPES pH 7.5 buffer in a 100 mM NaCl solution. […] Therefore, the amphiphilic compounds described herein, such as the MNG amphiphiles, provide new options for enhancing the function and analysis of various isolated and/or purified proteins and receptors.

Data set [4] concerns the target β2AR (Homo sapiens, UniProt P07550). In words: Lipidic cubic phase (LCP) crystallization of agonist-bound β2AR. Conditions: detergent present before incorporation into LCP. The text has this: LCP methods have proven useful for crystallizing membrane proteins, including G protein-coupled receptors (GPCRs). However, the process of incorporating membrane proteins from a detergent solubilized state into LCP can lead to denaturation of the protein.

The subject of data set [5] is human β2 adrenergic receptor-T4-lyosome fusion protein (β2AR-T4L). The data set can be described thus: Thermal stabilization (Tm) of β2AR-T4L in amphiphile, normalized peak ratio 341 nm/356 nm. On the set-up: Tm: unit: °C. The following applies: 250 × CMC.

β2AR, sequence (P07550 whole entry): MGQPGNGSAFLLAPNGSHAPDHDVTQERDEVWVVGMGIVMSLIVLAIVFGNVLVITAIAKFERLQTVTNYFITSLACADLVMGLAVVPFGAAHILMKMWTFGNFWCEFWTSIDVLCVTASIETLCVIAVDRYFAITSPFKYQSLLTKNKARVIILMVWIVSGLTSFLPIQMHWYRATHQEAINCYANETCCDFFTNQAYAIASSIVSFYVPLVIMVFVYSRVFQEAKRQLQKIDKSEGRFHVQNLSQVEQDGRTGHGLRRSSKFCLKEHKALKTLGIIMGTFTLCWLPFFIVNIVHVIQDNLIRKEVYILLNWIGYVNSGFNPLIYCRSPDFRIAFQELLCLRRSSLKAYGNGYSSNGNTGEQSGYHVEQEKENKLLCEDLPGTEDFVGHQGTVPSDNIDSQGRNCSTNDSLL

For `CCCCCCCCCCC(CCCCCCCCCC)(COC1OC(CO)C(OC2OC(CO)C(O)C(O)C2O)C(O)C1O)COC1OC(CO)C(OC2OC(CO)C(O)C(O)C2O)C(O)C1O` (stereo not drawn) [MNG-14], in data set [1] (10 times CMC and 50 times CMC), the “Stabilization of β2AR-T4L, comparison in words” value is listed as “best overall properties for stabilizing β2AR-T4L”. Also, the ΔTm entry was “+3.9” in data set [1] (10 × CMC, relative to DDM); “+5.4” in data set [1] (50 × CMC, relative to DDM); “+4.9” in data set [1] (concentration not given, matches most favourable (*) Tm minus DDM 63.5); “+4.6” in data set [5] (relative to DDM). In addition, the Tm was 67.4 (n = 3) in data set [1] (10 × CMC, scan from 25° C. to 85° C.); 68.4 (n = 3)* in data set [1] (50 × CMC); 66.8 (n = 3) in data set [5] (β2AR-T4L). Also, the “CMC” value in data set [2] was 0.01 mM. Besides, the “CMC (%)” value in data set [2] is on record as 0.001%. In addition, the “Binding (counts per minute (CPM)) of [3H]NMS compared to the use of DDM alone” value in data set [3] is given as “nine-fold higher”. Besides, the “Outcome of LCP crystallization of agonist-bound β2AR” value in data set [4] was “diffraction quality crystals were obtained”.
